Laboratory results reported in US20260317356A1, “SMALL MOLECULE MODULATORS OF OGG1” (AZKARRA THERAPEUTICS, INC., priority 2023, published 2026).

Molecular target: hOGG1 (Homo sapiens, UniProt O15527)
Test: Biochemical fluorescence assay to measure enzymatic activity of hOGG1 (OGG1/APEX IC50)
Parameters: Protein His-hOGG1 (12-323) was prepared; His (N); host or cells: E. coli
Conditions: 1 nM OGG1+2 nM APEX+6 nM dsDNA (8-oxo-dG substrate); pH 7.5; RT 40 min; read-out: OGG1/APEX IC50
Outline: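 Coupled glycosylase/AP-endonuclease read-out: 8-oxo-dG-containing dsDNA (6 nM) cleaved by 1 nM His-hOGG1 (12-323) plus 2 nM APEX1 over 40 min at room temperature, after 20 min enzyme–compound preincubation; buffer 20 mM Tris pH 7.5, 100 mM KCl, 0.1% BSA, 0.01% Tween. IC50 comes from sigmoidal 3-parameter fitting of % inhibition derived from TAMRA signal.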

Sequence of hOGG1 (O15527 12-323): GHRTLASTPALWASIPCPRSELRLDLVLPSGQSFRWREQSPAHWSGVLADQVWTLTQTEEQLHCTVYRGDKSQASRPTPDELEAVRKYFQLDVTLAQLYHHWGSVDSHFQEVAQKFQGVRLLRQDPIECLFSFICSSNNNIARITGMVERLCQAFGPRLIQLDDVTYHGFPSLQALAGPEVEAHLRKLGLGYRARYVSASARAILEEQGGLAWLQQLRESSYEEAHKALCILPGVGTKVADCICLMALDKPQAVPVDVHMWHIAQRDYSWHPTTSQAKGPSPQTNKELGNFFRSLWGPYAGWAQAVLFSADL

SMILES	IC50 [nM]
C=Cc1cc(C)c2c(c1)NC(=O)N([C@H]1CC[C@@H](C(=O)Nc3ccc(C)c(OC)c3)CC1)C2 [Example 83, (1s,4s)-N-(3-methoxy-4-methylphenyl)-4-(5-methyl-2-oxo-7-vinyl-1,2-dihydroquinazolin-3(4H)-yl)cyclohexanecarboxamide]	100 to 1000
COc1cc(NC(=O)[C@H]2CC[C@@H](n3[nH]c4c(C)cccc4c3=O)CC2)ccc1C [Example 118, (1s,4s)-N-(3-Methoxy-4-methylphenyl)-4-(7-methyl-3-oxo-1,3-dihydro-2H-indazol-2-yl)cyclohexane-1-carboxamide]	< 100
COc1ccc(NC(=O)[C@H]2CC[C@@H](N3Cc4c(C)cc(NCCN(C)C)cc4C3=O)CC2)cc1F [Example 257, (1s,4s)-4-(6-(2-(Dimethylamino)ethylamino)-4-methyl-1-oxoisoindolin-2-yl)-N-(3-fluoro-4-methoxyphenyl)cyclohexanecarboxamide]	< 100
COc1cc(NC(=O)[C@H]2CC[C@@H](N3Cc4c(C)cccc4C3=O)CC2)ccc1C(F)(F)F [Example 258, (1s,4s)-N-(3-Methoxy-4-(trifluoromethyl)phenyl)-4-(4-methyl-1-oxoisoindolin-2-yl)cyclohexanecarboxamide]	100 to 1000
COc1cc(NC(=O)[C@H]2CC[C@@H](N3Cc4c(Br)cc(NC(C)C(C)O)cc4C3=O)CC2)ccc1C (stereo partly shown) [Example 178, (1s,4s)-4-(4-Bromo-6-(3-hydroxybutan-2-ylamino)-1-oxoisoindolin-2-yl)-N-(3-methoxy-4-methylphenyl)cyclohexanecarboxamide]	1000 to 10000
Cc1cccc2c1CN([C@H]1CC[C@@H](C(=O)Nc3ccc4cc[nH]c4c3)CC1)C2=O [Example 276, (1s,4s)-N-(1H-indol-6-yl)-4-(4-methyl-1-oxoisoindolin-2-yl)cyclohexanecarboxamide]	1000 to 10000
COc1cc(NC(=O)[C@H]2CC[C@@H](N3Cc4c(C)cc(NCCN(C)C)cc4C3=O)CC2)ccc1C [Example 208, (1s,4s)-4-(6-(2-(Dimethylamino)ethylamino)-4-methyl-1-oxoisoindolin-2-yl)-N-(3-methoxy-4-methylphenyl)cyclohexanecarboxamide]	< 100
COc1cc(NC(=O)[C@H]2CC[C@@H](N3Cc4c(ccc(OC5CNC5)c4C)NC3=O)CC2)ccc1C [Example 49, (1s,4s)-4-(6-(Azetidin-3-yloxy)-5-methyl-2-oxo-1,2-dihydroquinazolin-3(4H)-yl)-N-(3-methoxy-4-methylphenyl)cyclohexanecarboxamide]	100 to 1000
COc1c(F)cc(NC(=O)[C@H]2CC[C@@H](N3Cc4c(C)cccc4C3=O)CC2)cc1F [Example 243, (1s,4s)-N-(3,5-Difluoro-4-methoxyphenyl)-4-(4-methyl-1-oxoisoindolin-2-yl)cyclohexanecarboxamide]	100 to 1000
COc1cc(NC(=O)[C@H]2CC[C@@H](N3Cc4c(OC)cccc4C3=O)CC2)ccc1C [Example 161, (1s,4s)-4-(4-Methoxy-1-oxoisoindolin-2-yl)-N-(3-methoxy-4-methylphenyl)cyclohexanecarboxamide]	1000 to 10000
COc1cc(NC(=O)[C@]2(C)CC[C@@H](N3Cc4c(C)cccc4C3=O)CC2)ccc1C [Example 278, (1r,4r)-N-(3-methoxy-4-methylphenyl)-1-methyl-4-(4-methyl-1-oxoisoindolin-2-yl)cyclohexane-1-carboxamide]	1000 to 10000
COc1cc(NC(=O)[C@H]2CC[C@@H](N3Cc4ccccc4C3=O)CC2)ccc1C [Example 148, (1s,4s)-N-(3-Methoxy-4-methylphenyl)-4-(1-oxoisoindolin-2-yl)cyclohexanecarboxamide]	1000 to 10000
COc1cc(NC(=O)[C@H]2CC[C@@H](N3Cc4c(C)cc(Br)cc4NC3=O)CC2)ccc1C [Example 74, (1s,4s)-4-(7-bromo-5-methyl-2-oxo-1,2-dihydroquinazolin-3(4H)-yl)-N-(3-methoxy-4-methylphenyl)cyclohexanecarboxamide]	100 to 1000
COc1cc(NC(=O)[C@H]2CC[C@@H](N3Cc4c(C)cc(CNS(C)(=O)=O)cc4NC3=O)CC2)ccc1C [Example 26, (1s,4s)-N-(3-Methoxy-4-methylphenyl)-4-(5-methyl-7-(methylsulfonamidomethyl)-2-oxo-1,2-dihydroquinazolin-3(4H)-yl)cyclohexanecarboxamide]	< 100
COc1ccc(NC(=O)[C@H]2CC[C@@H](N3Cc4c(C)cccc4NC3=O)CC2)cc1C#N [Example 86, (1s,4s)-N-(3-cyano-4-methoxyphenyl)-4-(5-methyl-2-oxo-1,2-dihydroquinazolin-3(4H)-yl)cyclohexanecarboxamide]	< 100
Cc1cccc2c1CN([C@H]1CC[C@@H](C(=O)Nc3ccc4oncc4c3)CC1)C(=O)N2 [Example 114, (1s,4s)-N-(benzo[d]isoxazol-5-yl)-4-(5-methyl-2-oxo-1,2-dihydroquinazolin-3(4H)-yl)cyclohexanecarboxamide]	1000 to 10000

SMILES	IC50 [nM]
COc1cc(NC(=O)[C@H]2CC[C@@H](N3Cc4c(Br)cc(NC5COC5)cc4C3=O)CC2)ccc1C [Example 174, (1s,4s)-4-(4-Bromo-6-(oxetan-3-ylamino)-1-oxoisoindolin-2-yl)-N-(3-methoxy-4-methylphenyl)cyclohexanecarboxamide]	100 to 1000
COc1cc(NC(=O)[C@H]2CC[C@@H](N3Cc4c(Br)cc(NCC5CNC5)cc4C3=O)CC2)ccc1C [Example 177, (1s,4s)-4-(6-(Azetidin-3-ylmethylamino)-4-bromo-1-oxoisoindolin-2-yl)-N-(3-methoxy-4-methylphenyl)cyclohexanecarboxamide]	< 100
COc1cc(NC(=O)[C@H]2CC[C@@H](N3Cc4c(C)cc(C(=O)O)cc4C3=O)CC2)ccc1C [Example 211, 2-((1s,4s)-4-(3-Methoxy-4-methylphenylcarbamoyl)cyclohexyl)-7-methyl-3-oxoisoindoline-5-carboxylic Acid]	100 to 1000
COc1cc(NC(=O)[C@H]2CC[C@@H](N3Cc4c(C)cc(OCCN(C)C)cc4OC3=O)CC2)ccc1C [Example 117, (1s,4s)-4-(7-(2-(dimethylamino)ethoxy)-5-methyl-2-oxo-2H-benzo[e][1,3]oxazin-3(4H)-yl)-N-(3-methoxy-4-methylphenyl)cyclohexane-1-carboxamide]	100 to 1000
Cc1ccc(NC(=O)[C@H]2CC[C@@H](N3Cc4c(C)cccc4C3=O)CC2)cc1C#N [Example 254, (1s,4s)-N-(3-Cyano-4-methylphenyl)-4-(4-methyl-1-oxoisoindolin-2-yl)cyclohexanecarboxamide]	100 to 1000
COc1ccc(NC(=O)[C@H]2CC[C@@H](N3Cc4c(C)cccc4C3=O)CC2)cc1Cl [Example 238, (1s,4s)-N-(3-Chloro-4-methoxyphenyl)-4-(4-methyl-1-oxoisoindolin-2-yl)cyclohexanecarboxamide]	100 to 1000
COc1cc(NC(=O)[C@H]2CC[C@@H](N3Cc4c(ccnc4Br)C3=O)CC2)ccc1C [Example 176, (1s,4s)-4-(4-Bromo-1-oxo-1H-pyrrolo[3,4-c]pyridin-2(3H)-yl)-N-(3-methoxy-4-methylphenyl)cyclohexanecarboxamide]	100 to 1000
Cc1cccc2c1CN([C@H]1CC[C@@H](C(=O)Nc3ccc(=O)[nH]c3)CC1)C2=O [Example 251, (1s,4s)-4-(4-Methyl-1-oxoisoindolin-2-yl)-N-(6-oxo-1,6-dihydropyridin-3-yl)cyclohexanecarboxamide]	> 10000
COc1cc(NC(=O)[C@H]2CC[C@@H](N3Cc4c(N)cccc4C3=O)CC2)ccc1C [Example 154, (1s,4s)-4-(4-Amino-1-oxoisoindolin-2-yl)-N-(3-methoxy-4-methylphenyl)cyclohexanecarboxamide]	1000 to 10000
COc1ccc(NC(=O)[C@]2(C)CC[C@H](N3Cc4c(C)cccc4NC3=O)CC2)cc1C (single isomer, unassigned) [Example 105, (1s,4s)-N-(4-methoxy-3-methylphenyl)-1-methyl-4-(5-methyl-2-oxo-1,2-dihydroquinazolin-3(4H)-yl)cyclohexanecarboxamide]	< 100
COc1cc(NC(=O)[C@H]2CC[C@@H](N3Cc4c(CN)ccc(Cl)c4C3=O)CC2)ccc1C [Example 133, (1s,4s)-4-(4-(Aminomethyl)-7-chloro-1-oxoisoindolin-2-yl)-N-(3-methoxy-4-methylphenyl)cyclohexane-1-carboxamide]	> 10000
COc1cc(NC(=O)[C@H]2CC[C@H](n3[nH]c4c(Br)cccc4c3=O)CC2)ccc1C (single isomer, unassigned) [Example 159, (1r,4r)-4-(7-Bromo-3-oxo-1H-indazol-2(3H)-yl)-N-(3-methoxy-4-methylphenyl)cyclohexanecarboxamide]	> 10000
Cc1cc(NC(=O)[C@H]2CC[C@@H](N3Cc4c(C)cccc4C3=O)CC2)ccc1O [Example 220, (1s,4s)-N-(4-Hydroxy-3-methylphenyl)-4-(4-methyl-1-oxoisoindolin-2-yl)cyclohexanecarboxamide]	100 to 1000
Cc1ccc(NC(=O)[C@H]2CC[C@@H](N3Cc4c(C)cccc4C3=O)CC2)cc1C#N [Example 218, (1s,4s)-N-(3-Cyano-4-methylphenyl)-4-(4-methyl-1-oxoisoindolin-2-yl)cyclohexanecarboxamide]	1000 to 10000
CCc1ccc(NC(=O)[C@H]2CC[C@@H](N3Cc4c(C)cccc4NC3=O)CC2)cc1C#N [Example 94, (1s,4s)-N-(3-cyano-4-ethylphenyl)-4-(5-methyl-2-oxo-1,2-dihydroquinazolin-3(4H)-yl)cyclohexanecarboxamide]	100 to 1000
